Values joined by “and” are separate entries in the source; they are usually repeats but may differ in a detail not shown here. Identical values can stand only once. Where a SMILES comes first, the peptide text is derived from it.
Columns and labels:
[1] = system: C. difficile ATCC 9689; assay: Bacterial mass in wells of PM panels (OD 750 nm); type: cell-based, Clostridium difficile; details: OD difference with vs without C. difficile, 72 h
[2] = system: C. difficile ATCC 9689; type: cell-based, Clostridium difficile
[3] = nitrogen source (PM03/06/07/08)
[4] = phosphorus/sulfur source panel PM04

Compound	C. difficile Mass [1, 3]	Effect on toxin production (in words) [2]	Toxin [2]	C. difficile Mass [1, 4]	C. difficile Mass ([1]; carbon source (PM01/PM02))
CCC(C)C(NC(=O)C(N)CC(C)C)C(=O)O (stereo not drawn) [Leu-Ile] (H-Leu-Ile-OH; configuration not given here)	0.0523 OD (750 nm)	toxin production inhibitor	<0.122 ng/mL		
CC(C)CC(N)C(=O)NC(CC(C)C)C(=O)NC(CC(C)C)C(=O)O (stereo not drawn) [Leu-Leu-Leu] (H-Leu-Leu-Leu-OH; configuration not given here)	0.0463 OD (750 nm)	toxin production inhibitor	<0.122 ng/mL		
CC(C)C[C@H](NC(=O)[C@@H](N)CC(C)C)C(=O)O [Leu-Leu]	0.0530 OD (750 nm)	toxin production inhibitor	<0.122 ng/mL		
CSCCC(NC(=O)C(N)CC(C)C)C(=O)O (stereo not drawn) [Leu-Met] (H-Leu-Met-OH; configuration not given here)	0.0501 OD (750 nm)	toxin production inhibitor	<0.122 ng/mL		
CC(C)CC(N)C(=O)NC(Cc1ccccc1)C(=O)O (stereo not drawn) [Leu-Phe] (H-Leu-Phe-OH; configuration not given here)	0.0538 OD (750 nm)	toxin production inhibitor	<0.122 ng/mL		
CCCCN [N-Butylamine]	0.0407 OD (750 nm)		5679 ng/mL		
O=NO [Nitrite]	0.0333 OD (750 nm)		383 ng/mL		
O=P(O)(O)OP(=O)(O)O [Pyrophosphate]			<0.122 ng/mL	0.0075 OD (750 nm)	
OP(O)(O)=S [Thiophosphate]			<0.122 ng/mL	0.0373 OD (750 nm)	
O=P1([O-])OP(=O)([O-])OP(=O)([O-])O1.[Na+].[Na+].[Na+] [Trimetaphosphate]			<0.122 ng/mL	0.0493 OD (750 nm)	
NCCCCC(=O)O [δ-Amino-N-Valeric acid]	0.0424 OD (750 nm)		435 ng/mL		
NCCCCCC(=O)O [ε-Amino-N-Caproic acid]	0.0366 OD (750 nm)		3389 ng/mL		
Ala-Gly			2130 ng/mL		0.0934 OD (750 nm)
Ala-Pro	0.0507 OD (750 nm)		<0.122 ng/mL		
Arg-Ala	0.0456 OD (750 nm)		10080 ng/mL		
Arg-Arg	0.0435 OD (750 nm)		8229 ng/mL		
Arg-Asp	0.0444 OD (750 nm)		10371 ng/mL		
Arg-Gln	0.0476 OD (750 nm)		8912 ng/mL		
Arg-Glu	0.0404 OD (750 nm)		4059 ng/mL		
Arg-Phe	0.0467 OD (750 nm)		6541 ng/mL		
Arg-Ser	0.0448 OD (750 nm)		7608 ng/mL		

Compound	C. difficile Mass [1, 3]	Effect on toxin production (in words) [2]	Toxin [2]	C. difficile Mass [1, 4]	C. difficile Mass ([1]; carbon source (PM01/PM02))
Arg-Trp	0.0499 OD (750 nm)		8423 ng/mL		
Arg-Tyr	0.0455 OD (750 nm)		8819 ng/mL		
Gly-Arg	0.0403 OD (750 nm)		352 ng/mL		
Gly-Asp			1507 ng/mL		0.1004 OD (750 nm)
Gly-D-Asp	0.0467 OD (750 nm)		1537 ng/mL		
Gly-D-Ser	0.0543 OD (750 nm)		297 ng/mL		
Gly-D-Thr	0.0549 OD (750 nm)		157 ng/mL		
Gly-Glu	0.0472 OD (750 nm)		366 ng/mL and 184 ng/mL		0.0411 OD (750 nm)
Gly-Gly-Gly	0.0456 OD (750 nm)		1811 ng/mL		
Gly-Gly-Ile	0.0421 OD (750 nm)		<0.122 ng/mL		
Gly-Gly-Leu	0.0305 OD (750 nm)		215 ng/mL		
Gly-Phe-Phe	0.2751 OD (750 nm)		298 ng/mL		
Gly-Pro	0.0414 OD (750 nm)		3798 ng/mL		
Gly-Ser	0.0471 OD (750 nm)		<0.122 ng/mL		
Gly-Trp	0.0431 OD (750 nm)		3632 ng/mL		
His-Leu	0.0495 OD (750 nm)		376 ng/mL		
His-Lys	0.0453 OD (750 nm)		6993 ng/mL		
His-Pro	0.0481 OD (750 nm)		8568 ng/mL		
His-Trp	0.0442 OD (750 nm)		178 ng/mL		
Ile-Arg	0.0442 OD (750 nm)		122 ng/mL		

Source: patent US9662372B2 (priority 2013, dated 2017)
